One block for each compound: values may come before it.
Columns and labels:
[1] = target: T1, mGlu5 MPEP allosteric binding site (Rattus norvegicus, UniProt P31424); experiment: [3H]methoxyPEPy binding
[2] = In vitro oxidative metabolism; type: in vitro ADME, rat
rat mGlu5 receptor = rat mGlu5 receptor (Rattus norvegicus, UniProt P31424); experiment: Calcium mobilization assay in HEK293 cells expressing the rat mGlu5 receptor; type: cell-based; conditions: for loss in functional activity versus 6: relative to 6 (VU0357121); for improvement in potency versus 8b: relative to 8b; for EC50 (nM): calcium mobilization, HEK293 cells expressing rat mGlu5
Sequence of rat mGlu5 receptor (P31424 21-1203): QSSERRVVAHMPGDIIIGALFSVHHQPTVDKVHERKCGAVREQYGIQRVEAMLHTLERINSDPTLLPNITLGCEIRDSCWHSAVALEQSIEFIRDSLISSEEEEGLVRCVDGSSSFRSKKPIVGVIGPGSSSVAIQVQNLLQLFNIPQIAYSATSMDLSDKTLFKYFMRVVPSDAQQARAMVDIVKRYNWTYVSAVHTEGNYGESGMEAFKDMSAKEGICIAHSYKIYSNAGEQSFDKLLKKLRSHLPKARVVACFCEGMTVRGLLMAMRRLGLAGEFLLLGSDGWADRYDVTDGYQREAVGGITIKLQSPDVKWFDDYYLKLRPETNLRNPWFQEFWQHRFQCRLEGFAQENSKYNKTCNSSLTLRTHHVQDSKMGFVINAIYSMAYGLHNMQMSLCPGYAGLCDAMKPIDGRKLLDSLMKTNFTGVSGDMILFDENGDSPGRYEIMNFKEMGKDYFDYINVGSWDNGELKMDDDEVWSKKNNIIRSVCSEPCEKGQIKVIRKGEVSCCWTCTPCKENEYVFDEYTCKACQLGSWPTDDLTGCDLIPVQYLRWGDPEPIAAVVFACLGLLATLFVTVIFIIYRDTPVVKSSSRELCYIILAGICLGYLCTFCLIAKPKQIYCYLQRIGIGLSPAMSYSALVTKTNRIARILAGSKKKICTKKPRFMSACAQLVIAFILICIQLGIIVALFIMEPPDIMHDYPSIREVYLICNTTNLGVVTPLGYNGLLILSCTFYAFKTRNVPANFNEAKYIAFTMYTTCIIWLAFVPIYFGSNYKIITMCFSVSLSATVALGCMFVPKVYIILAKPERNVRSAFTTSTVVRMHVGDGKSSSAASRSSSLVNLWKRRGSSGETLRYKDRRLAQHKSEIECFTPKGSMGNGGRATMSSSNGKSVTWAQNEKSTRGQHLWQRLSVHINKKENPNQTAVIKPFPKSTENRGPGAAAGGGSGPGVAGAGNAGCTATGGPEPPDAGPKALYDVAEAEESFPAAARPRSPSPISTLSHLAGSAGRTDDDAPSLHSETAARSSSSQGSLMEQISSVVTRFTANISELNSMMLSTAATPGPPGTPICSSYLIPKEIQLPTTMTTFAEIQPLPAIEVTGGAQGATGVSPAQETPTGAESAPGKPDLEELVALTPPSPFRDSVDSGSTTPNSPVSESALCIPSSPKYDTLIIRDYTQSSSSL

[3] = system: amphetamine-induced hyperlocomotion; experiment: Reversal of amphetamine-induced hyperlocomotion in rats; type: in vivo, rat; conditions: rats, 100 mg/kg p.o., vehicle 20% β-CD
[4] = as above; type: in vivo, rat; conditions: rat, brain (unbound), po, 100 mg/kg
human mGlu5 receptor = human mGlu5 receptor (Homo sapiens, UniProt P41594); experiment: Functional assay in lower expressing human mGlu5 receptor cell line; type: cell-based
Sequence of human mGlu5 receptor (P41594 21-1212): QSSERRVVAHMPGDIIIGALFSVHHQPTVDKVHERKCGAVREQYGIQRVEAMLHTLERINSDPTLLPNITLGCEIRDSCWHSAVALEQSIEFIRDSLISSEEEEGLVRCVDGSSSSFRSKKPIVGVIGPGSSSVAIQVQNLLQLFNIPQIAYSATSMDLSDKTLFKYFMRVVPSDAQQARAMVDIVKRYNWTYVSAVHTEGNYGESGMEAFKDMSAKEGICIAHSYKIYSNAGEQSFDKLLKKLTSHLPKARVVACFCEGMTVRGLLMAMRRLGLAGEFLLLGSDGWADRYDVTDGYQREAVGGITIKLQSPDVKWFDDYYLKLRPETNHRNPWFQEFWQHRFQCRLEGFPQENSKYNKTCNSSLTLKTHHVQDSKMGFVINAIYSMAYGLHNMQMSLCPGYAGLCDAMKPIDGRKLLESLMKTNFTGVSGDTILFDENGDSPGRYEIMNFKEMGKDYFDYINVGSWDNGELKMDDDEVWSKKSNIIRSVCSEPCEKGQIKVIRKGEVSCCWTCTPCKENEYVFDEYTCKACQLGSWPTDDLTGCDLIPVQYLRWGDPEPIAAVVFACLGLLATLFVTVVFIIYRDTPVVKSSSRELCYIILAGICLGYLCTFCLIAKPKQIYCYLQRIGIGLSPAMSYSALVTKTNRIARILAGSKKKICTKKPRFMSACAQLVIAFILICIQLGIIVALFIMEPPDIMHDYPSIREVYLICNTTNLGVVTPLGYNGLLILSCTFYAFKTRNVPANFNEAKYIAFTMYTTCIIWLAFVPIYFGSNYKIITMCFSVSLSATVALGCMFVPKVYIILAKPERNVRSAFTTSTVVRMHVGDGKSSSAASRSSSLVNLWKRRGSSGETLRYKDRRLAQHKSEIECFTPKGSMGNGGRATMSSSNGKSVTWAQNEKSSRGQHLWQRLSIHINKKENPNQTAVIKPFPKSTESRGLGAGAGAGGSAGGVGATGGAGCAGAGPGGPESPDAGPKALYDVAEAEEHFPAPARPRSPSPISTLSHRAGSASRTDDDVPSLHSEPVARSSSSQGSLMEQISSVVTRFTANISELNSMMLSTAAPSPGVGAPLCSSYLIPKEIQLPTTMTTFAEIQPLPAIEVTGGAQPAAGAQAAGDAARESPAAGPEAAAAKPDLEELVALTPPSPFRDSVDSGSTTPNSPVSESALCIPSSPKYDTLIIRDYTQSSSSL

[5] = target: wild-type rat mGlu5 receptor (Rattus norvegicus, UniProt P31424); experiment: Fold-shift of glutamate concentration-response curve at wild-type receptor; type: cell-based; conditions: 1 μM compound
Sequence of wild-type rat mGlu5 receptor (P31424 21-1203): as the sequence (P31424 21-1203) above

[6] = Non-crossover in vivo pharmacokinetic studies in rats; parameters: species or system rat
[7] = system: mGlu5 MPEP site sensitive mutants (P654F, T780A, A809V); experiment: Fold-shift of glutamate CRC at MPEP site sensitive point mutants; type: cell-based; conditions: 1 μM compound, compared to wild-type rat mGlu5
[8] = target: T1, mGlu5 MPEP allosteric binding site; conditions: cited from earlier work

T1 sequence (P31424 21-1203): as above

Compound: O=C(NC1CCCCC1)c1ccc(OCc2ccccc2)nc1 [8k]
estimated divergence of MPEP site interaction from functional activity ([1]; 21% displacement at 10 μM versus functional EC50): > 100 fold
oxidative metabolism in rat microsomal incubations ([2]; soft-spot analysis, rat microsomes): extensive oxidative metabolism

Compound: C[C@@H](NC(=O)c1ccc(OCc2cccc(F)c2)nc1)C(C)(C)C [8v]
reversal of amphetamine-induced hyperlocomotion [3]: robust effects in reversal of hyperlocomotion
concentration at 90 min [4]: ~74 nM
increase in activity over cyclohexyl analog R-8t (rat mGlu5 receptor; high expressing rat receptor HEK cell line): twofold
agonism activity for compound alone (human mGlu5 receptor): no detected agonism activity
shift of the glutamate CRC [5]: fivefold
displacement of the MPEP-site radioligand [3H]-methoxyPEPy (extent) [1]: full displacement
clearance ([6]; rat, plasma, iv, 1 mg/kg): 13.7 mL/min/kg
first-pass effect (Ehep) ([6]; rats, snapshot oral PK, portal vein vs plasma): 0.41
effect of MPEP-site point mutations on shift of the glutamate CRC [7]: reduced the ability

Compound: C[C@@H](NC(=O)c1ccc(OCc2cccc(F)c2)cc1)C(C)(C)C [8w]
EC50 relative to 8v (rat mGlu5 receptor; direct comparator to 8v): ~ 2.5 fold

Compound: CCCCOc1ccc(C(=O)Nc2ccc(F)cc2F)cc1 [compound 6]
displacement of the MPEP-site ligand [3H]methoxyPEPy [8]: not observed to displace

Compound: CCCC(C)Oc1ccc(C(=O)NC2CCCCC2)cn1 (stereo not shown) [8f]
EC50 (nM) (rat mGlu5 receptor): unproductive

Compound: CCCOc1ccc(C(=O)NC2CCCCC2)cn1 [8e]
EC50 (nM) (rat mGlu5 receptor): complete loss of potentiation

The next lines start with the values.

loss in functional activity versus 6 (rat mGlu5 receptor): > 15 fold
Compound: CCCCOc1ccc(C(=O)NC2CCC2)cc1 [7c]

metabolic stability in vitro ([2]; data not shown): relatively stable metabolically in vitro
Compound: O=C(N[C@@H](C1CC1)C(F)(F)F)c1ccc(OCc2cccc(F)c2)nc1 [8u]

improvement in potency versus 8b (rat mGlu5 receptor): fivefold
Compound: CCCCCOc1ccc(C(=O)NC2CCCCC2)cn1 [8d]

loss in activity relative to 8k (rat mGlu5 receptor; relative to 8k): sevenfold
Compound: O=C(NC1CCCCC1)c1ccc(OCc2ccc(F)cc2)nc1 [8m]

loss in functional activity versus 6 (rat mGlu5 receptor): 22 fold
Compound: CCCCOc1ccc(C(=O)Nc2ccc(F)cc2F)cn1 [8a]

improvement in potency versus 8b (rat mGlu5 receptor): twofold
Compound: CCC(C)COc1ccc(C(=O)NC2CCCCC2)cn1 (stereo not shown) [8g]

loss in functional activity versus 6 (rat mGlu5 receptor): > 15 fold
Compound: CCCCOc1ccc(C(=O)NC2CCCCC2)cc1 [7a]

Source: paper PMC3755010 (Bioorganic & medicinal chemistry letters, 2012)
